Test results taken from PubChem BioAssay AID1963451 (Molecular Pharmacology Branch, DTP, NCI, 2024).
Values joined by “and” are separate entries in the source; they are usually repeats but may differ in a detail not shown here. Equal entries are not always repeated.

Test system: 521955-158-R6-J3-PDC complex spheroid growth, % test/control
Test: Anticancer human tumor 521955-158-R6-J3-PDC patient-derived pancreatic carcinoma cell line growth inhibition [Asc]
Conditions: for viability, T/C: stronger effect = lower value; active means viability on the fitted dose curve at most 10% of control; inactive means the rest
Method in brief: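 Spheroid model: tumor line + HUVEC + hMSC. Single agents and combinations; top conc. at/near clinical Cmax (10 microM if undetermined), half-log dilutions. DMSO stocks at 800-fold test concentration.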
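Further: spheroids exposed to compounds for 7 days.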
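Wherever viability, T/C is given: 100% = DMSO vehicle control wells.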

CCN1CCN(Cc2ccc(Nc3ncc(F)c(-c4cc(F)c5nc(C)n(C(C)C)c5c4)n3)nc2)CC1 + CNC(C)C(=O)NC1CN(S(=O)(=O)c2cccc(S(=O)(=O)N3CCC4CCC(C(=O)NC(c5ccccc5)c5ccccc5)N4C(=O)C(NC(=O)C(C)NC)C3)c2)CCC2CCC(C(=O)NC(c3ccccc3)c3ccccc3)N2C1=O
inactive: viability, T/C (second compound 0.00316 µM, first compound 0.00316 µM) 174% | viability, T/C (second compound 0.00316 µM, first compound 0.01 µM) 141% | viability, T/C (second compound 0.00316 µM, first compound 0.0316 µM) 140% | viability, T/C (second compound 0.00316 µM, first compound 0.1 µM) 153% | viability, T/C (second compound 0.00316 µM, first compound 0.316 µM) 136% | viability, T/C (second compound 0.00316 µM, first compound 1 µM) 120% | viability, T/C (second compound 0.01 µM, first compound 0.00316 µM) 94.2% | viability, T/C (second compound 0.01 µM, first compound 0.01 µM) 76.4% | viability, T/C (second compound 0.01 µM, first compound 0.0316 µM) 86.1% | viability, T/C (second compound 0.01 µM, first compound 0.1 µM) 75.9% | viability, T/C (second compound 0.01 µM, first compound 0.316 µM) 74.9% | viability, T/C (second compound 0.01 µM, first compound 1 µM) 86.4% | viability, T/C (second compound 0.0316 µM, first compound 0.00316 µM) 103% | viability, T/C (second compound 0.0316 µM, first compound 0.01 µM) 82.1% | viability, T/C (second compound 0.0316 µM, first compound 0.0316 µM) 73.6% | viability, T/C (second compound 0.0316 µM, first compound 0.1 µM) 83.4% | viability, T/C (second compound 0.0316 µM, first compound 0.316 µM) 83.6% | viability, T/C (second compound 0.0316 µM, first compound 1 µM) 92.1% | viability, T/C (second compound 0.1 µM, first compound 0.00316 µM) 107% | viability, T/C (second compound 0.1 µM, first compound 0.01 µM) 114% | viability, T/C (second compound 0.1 µM, first compound 0.0316 µM) 102% | viability, T/C (second compound 0.1 µM, first compound 0.1 µM) 75.9% | viability, T/C (second compound 0.1 µM, first compound 0.316 µM) 88.2% | viability, T/C (second compound 0.1 µM, first compound 1 µM) 100% | viability, T/C (second compound 0.316 µM, first compound 0.00316 µM) 87.4% | viability, T/C (second compound 0.316 µM, first compound 0.01 µM) 78.8% | viability, T/C (second compound 0.316 µM, first compound 0.0316 µM) 71% | viability, T/C (second compound 0.316 µM, first compound 0.1 µM) 66.5% | viability, T/C (second compound 0.316 µM, first compound 0.316 µM) 67.1% | viability, T/C (second compound 0.316 µM, first compound 1 µM) 71% | viability, T/C (second compound 1 µM, first compound 0.00316 µM) 86.3% | viability, T/C (second compound 1 µM, first compound 0.01 µM) 81.3% | viability, T/C (second compound 1 µM, first compound 0.0316 µM) 71.8% | viability, T/C (second compound 1 µM, first compound 0.1 µM) 72.8% | viability, T/C (second compound 1 µM, first compound 0.316 µM) 77.3% | viability, T/C (second compound 1 µM, first compound 1 µM) 83.9%
> 1000 nM: IC50 (curve of first compound, second compound 0.00316 µM) | IC50 (curve of first compound, second compound 0.01 µM) | IC50 (curve of first compound, second compound 0.0316 µM) | IC50 (curve of first compound, second compound 0.1 µM) | IC50 (curve of first compound, second compound 0.316 µM) | IC50 (curve of first compound, second compound 1 µM)

O=C(c1ccc(F)c(F)c1Nc1ccc(I)cc1F)N1CC(O)([C@@H]2CCCCN2)C1
681 nM and 684 nM and 396 nM: IC50 (curve of compound)
inactive: viability, T/C (compound 0.00316 µM) 87.6% and 110% and 88.3% | viability, T/C (compound 0.01 µM) 116% and 111% and 90.7% | viability, T/C (compound 0.0316 µM) 120% and 125% and 79.5% | viability, T/C (compound 0.1 µM) 105% and 98.2% and 79% | viability, T/C (compound 0.316 µM) 67.9% and 66.9% and 54% | viability, T/C (compound 1 µM) 41% and 41.8% and 29.7%

CCN1CCN(Cc2ccc(Nc3ncc(F)c(-c4cc(F)c5nc(C)n(C(C)C)c5c4)n3)nc2)CC1
inactive: viability, T/C (compound 0.00316 µM) 88.9% and 113% and 94.9% | viability, T/C (compound 0.01 µM) 105% and 115% and 102% | viability, T/C (compound 0.0316 µM) 77.9% and 87.5% and 87.9% | viability, T/C (compound 0.1 µM) 86.7% and 105% and 94.8% | viability, T/C (compound 0.316 µM) 85.5% and 74.2% and 83.4% | viability, T/C (compound 1 µM) 87.4% and 96.5% and 91.6%
> 1000 nM: IC50 (curve of compound)

CCN1CCN(Cc2ccc(Nc3ncc(F)c(-c4cc(F)c5nc(C)n(C(C)C)c5c4)n3)nc2)CC1 + CCN1C(C(=O)NC23CCC(C(=O)O)(CC2)CC3)C(c2cccc(Cl)c2F)C2(C(=O)Nc3cc(Cl)ccc32)C12CCCCC2
> 1000 nM: IC50 (curve of first compound, second compound 0.00949 µM) | IC50 (curve of first compound, second compound 0.03 µM) | IC50 (curve of first compound, second compound 0.0949 µM) | IC50 (curve of first compound, second compound 0.3 µM) | IC50 (curve of first compound, second compound 0.949 µM) | IC50 (curve of first compound, second compound 3 µM)
inactive: viability, T/C (second compound 0.00949 µM, first compound 0.00316 µM) 102% | viability, T/C (second compound 0.00949 µM, first compound 0.01 µM) 90.3% | viability, T/C (second compound 0.00949 µM, first compound 0.0316 µM) 79.1% | viability, T/C (second compound 0.00949 µM, first compound 0.1 µM) 101% | viability, T/C (second compound 0.00949 µM, first compound 0.316 µM) 89.1% | viability, T/C (second compound 0.00949 µM, first compound 1 µM) 88.6% | viability, T/C (second compound 0.03 µM, first compound 0.00316 µM) 101% | viability, T/C (second compound 0.03 µM, first compound 0.01 µM) 104% | viability, T/C (second compound 0.03 µM, first compound 0.0316 µM) 88.5% | viability, T/C (second compound 0.03 µM, first compound 0.1 µM) 92.2% | viability, T/C (second compound 0.03 µM, first compound 0.316 µM) 92.9% | viability, T/C (second compound 0.03 µM, first compound 1 µM) 102% | viability, T/C (second compound 0.0949 µM, first compound 0.00316 µM) 112% | viability, T/C (second compound 0.0949 µM, first compound 0.01 µM) 101% | viability, T/C (second compound 0.0949 µM, first compound 0.0316 µM) 97.4% | viability, T/C (second compound 0.0949 µM, first compound 0.1 µM) 95.5% | viability, T/C (second compound 0.0949 µM, first compound 0.316 µM) 91.3% | viability, T/C (second compound 0.0949 µM, first compound 1 µM) 106% | viability, T/C (second compound 0.3 µM, first compound 0.00316 µM) 106% | viability, T/C (second compound 0.3 µM, first compound 0.01 µM) 112% | viability, T/C (second compound 0.3 µM, first compound 0.0316 µM) 102% | viability, T/C (second compound 0.3 µM, first compound 0.1 µM) 87.8% | viability, T/C (second compound 0.3 µM, first compound 0.316 µM) 93.1% | viability, T/C (second compound 0.3 µM, first compound 1 µM) 90.2% | viability, T/C (second compound 0.949 µM, first compound 0.00316 µM) 108% | viability, T/C (second compound 0.949 µM, first compound 0.01 µM) 98.5% | viability, T/C (second compound 0.949 µM, first compound 0.0316 µM) 109% | viability, T/C (second compound 0.949 µM, first compound 0.1 µM) 93.2% | viability, T/C (second compound 0.949 µM, first compound 0.316 µM) 93.3% | viability, T/C (second compound 0.949 µM, first compound 1 µM) 102% | viability, T/C (second compound 3 µM, first compound 0.00316 µM) 106% | viability, T/C (second compound 3 µM, first compound 0.01 µM) 101% | viability, T/C (second compound 3 µM, first compound 0.0316 µM) 91.5% | viability, T/C (second compound 3 µM, first compound 0.1 µM) 84.8% | viability, T/C (second compound 3 µM, first compound 0.316 µM) 103% | viability, T/C (second compound 3 µM, first compound 1 µM) 93.2%

NC(=O)C(=Cn1cnc(-c2cc(C(F)(F)F)cc(C(F)(F)F)c2)n1)c1cncnc1
inactive: viability, T/C (compound 0.000949 µM) 105% and 126% and 111% | viability, T/C (compound 0.003 µM) 96.3% and 105% and 115% | viability, T/C (compound 0.00949 µM) 84.8% and 93.3% and 105% | viability, T/C (compound 0.03 µM) 98% and 98.2% and 115% | viability, T/C (compound 0.0949 µM) 124% and 107% and 73.9% | viability, T/C (compound 0.3 µM) 121% and 93.9% and 62.7%
> 300 nM: IC50 (curve of compound)
